In PubChem BioAssay (NCI):
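Interpolation was linear, between the two tested concentrations surrounding the appropriate level; five concentrations were tested over 48 hours in 96-well plates. GI50 is the concentration that inhibits growth by half. At the TGI there is no net growth.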

Assays:
Assay in all cases: DTP human tumour cell line panel, 48 h
[1] = test system: M14 melanoma
[2] = test system: HOP-92 NSCLC
[3] = test system: A549 NSCLC
[4] = test system: OVCAR-8 ovarian
[5] = test system: HT29 colon
[6] = test system: MALME-3M melanoma
[7] = test system: OVCAR-5 ovarian
[8] = test system: OVCAR-4 ovarian
[9] = test system: SN12C renal
[10] = test system: T-47D breast

SMILES	GI50 [1]	TGI [1]	GI50 [2]	TGI [2]	GI50 [3]	TGI [3]	GI50 [4]	TGI [4]	GI50 [5]	TGI [5]	GI50 [6]	TGI [6]	GI50 [7]	TGI [7]	GI50 [8]	TGI [8]	GI50 [9]	TGI [9]	GI50 [10]	TGI [10]
COP(=O)(OC)C(NC(c1ccccc1)c1ccccc1)c1ccc2c(c1)OCO2 (stereo not given)	23.1 µM	61.3 µM	12 µM	26.3 µM	27.3 µM	> 100 µM	35.2 µM	> 100 µM	19.9 µM	51.5 µM	27.4 µM	58.9 µM	54.6 µM	> 100 µM	30.5 µM	89.9 µM	24 µM	53.8 µM	27 µM	84.7 µM
CCCC1c2c(ccc3ccccc23)Oc2ccc3ccccc3c21		> 100 µM		> 100 µM		> 100 µM		> 100 µM		> 100 µM		> 100 µM		> 100 µM		> 100 µM		> 100 µM		> 100 µM
O=C(O)c1ccc2c(c1)Cc1cc([N+](=O)[O-])ccc1-2		> 100 µM		> 100 µM		> 100 µM		> 100 µM		> 100 µM		> 100 µM		> 100 µM		> 100 µM		> 100 µM		> 100 µM
CCN(CC)c1ccc(/C=C\c2cc(C)c3cc(C)ccc3n2)cc1	3.89 µM	> 100 µM	1.66 µM	7.06 µM	4.98 µM	> 100 µM	4.79 µM	> 100 µM	2.65 µM	11.4 µM	4.68 µM	> 100 µM	17.7 µM	> 100 µM	9.63 µM	> 100 µM	11.7 µM	> 100 µM	1.11 µM	> 100 µM
OCCCCC#Cc1ccccc1C#Cc1ccccc1	10.1 µM	22.9 µM	9.55 µM	22.6 µM	21.3 µM	70.4 µM	24.5 µM	59.5 µM	13.2 µM	> 100 µM	16.9 µM	32.1 µM	17.7 µM	43.6 µM	18 µM	53.2 µM	13.5 µM	27.8 µM	7.53 µM	> 100 µM
C[C@]12CCC3[C@@H](C[C@@H]4SC(Nc5ccccc5)=N[C@@]45CC(=O)CC[C@]35C)[C@@H]1CCC2=O (stereo not given in full)	7.88 µM	50.9 µM	18.7 µM	67.9 µM	26.4 µM	> 100 µM	7.61 µM	> 100 µM	3.9 µM	17.6 µM	21.2 µM	> 100 µM	24.5 µM	> 100 µM	18.9 µM	> 100 µM	3.81 µM	25.3 µM	3.5 µM	> 100 µM
Cc1ccc2c(c1)nc(C(=O)c1ccco1)c(C(F)(F)F)[n+]2[O-]	> 100 µM	> 100 µM	40.1 µM	> 100 µM	> 100 µM	> 100 µM	> 100 µM	> 100 µM	> 100 µM	> 100 µM	> 100 µM	> 100 µM	> 100 µM	> 100 µM	76.3 µM	> 100 µM	> 100 µM	> 100 µM	50.3 µM	> 100 µM
COCCn1cc(-c2csc(-c3c[nH]c4ccccc34)n2)c2cccnc21	3.22 µM	> 100 µM	14.9 µM	> 100 µM	7.1 µM	> 100 µM	8 µM	> 100 µM	3.19 µM	> 100 µM	3.58 µM	> 100 µM	28.2 µM	> 100 µM	1.76 µM	> 100 µM	> 100 µM	> 100 µM	0.418 µM	> 100 µM
N#CC(=S)Nc1cccc(Cl)c1		> 100 µM		> 100 µM		> 100 µM		> 100 µM		> 100 µM		> 100 µM		> 100 µM		> 100 µM		> 100 µM		> 100 µM
C=C1C(=O)O[C@H]2[C@H]1CC/C(COC(=O)NCc1cc3ccccc3[nH]1)=C\CC[C@@]1(C)O[C@@H]21	1.74 µM	3.85 µM	1.29 µM	2.98 µM	10.3 µM	27.2 µM	2.02 µM	5.41 µM	2.21 µM	4.7 µM	1.81 µM	3.58 µM	2.26 µM	5.12 µM	2.2 µM	7.63 µM	1.45 µM	3.17 µM	1.8 µM	4.33 µM
Cc1ccc(C(CN(C)C)C(=O)c2ccccc2)cc1 (stereo not given)	1.91 µM	4.35 µM	2.07 µM	5.38 µM	16.7 µM	38 µM	3.13 µM	11.3 µM	3.26 µM	12.5 µM	2.74 µM	8.89 µM	4.23 µM	15.8 µM	2.76 µM	13 µM	3.59 µM	11.5 µM	2.35 µM	12.7 µM
COc1ccc(/C=C/C(=O)c2cc3c(N)c(C(=O)Nc4ccccc4Cl)sc3nc2C)cc1	0.481 µM	> 50 µM	0.689 µM	4.18 µM	2.14 µM	> 50 µM	2.04 µM	11 µM	1.98 µM	> 50 µM	0.736 µM	9.21 µM	> 50 µM	> 50 µM	1.7 µM	46 µM	3.78 µM	> 50 µM	2.95 µM	> 50 µM
